{
  "source": "patent US20250074934A1",
  "about": "“CRYSTAL OF 4’-SUBSTITUTED NUCLEOSIDE, AND PREPARATION METHOD THEREFOR, COMPOSITION THEREOF AND USE THEREOF” (HENAN GENUINE BIOTECH CO., LTD., priority 2022, published 2025)",
  "key": {"[1]": {"assay": "stability of crystal forms on storage, drying or heating, checked by XRPD", "assay_type": "physicochemical", "description": "The type XVI crystal was heated to 55° C. in a nitrogen atmosphere and held for 2 to 24 h.\nThe type XVI crystal and the type XVII crystal were left at 60±5° C. for 5 days, respectively.\nThe type XVII crystal was left for 5 days under the conditions of 25° C. and 92.5±5% humidity.\nThe type XVIII crystal was heated to 150° C. or left for 24 h under the conditions of 25° C. and 92.5±5% humidity.\nThe crystal suffered from a weight loss of 13.2% when heated to 110° C., and a weight loss of 3.5% when further heated to 200° C. Three endothermic signals occurred in the range of 80° C. to 140° C. The type I crystal was heated to 55° C. under nitrogen protection and then cooled to room temperature. The sample was removed and exposed to air to test XRPD.\nAs the type II crystal was unstable and had been transformed after dying for a short period of time, no further studies were carried out on the type II crystal.\nUnder the conditions of nitrogen protection, the type IV crystal was heated to 141° C. and then tested for XRPD.\nThe type V crystal was subjected to the variable-temperature XRPD test.\nThe type VI crystal was heated to 160° C. under the nitrogen protection.\nUnder the nitrogen protection, the type VII crystal was heated to 130° C. and then cooled to room temperature. The sample was removed and exposed to the air to test XRPD.\nUnder the nitrogen protection, the type VIII crystal was heated to 160° C. and then cooled to room temperature. The sample was removed and exposed to the air to test XRPD.\nThe crystal was heated to 95° C. under nitrogen protection and then cooled to room temperature. The sample was removed and exposed to the air to test XRPD. […] The crystal was heated to 160° C. under the same conditions of nitrogen protection and then cooled to room temperature. The sample was removed and exposed to the air to test XRPD.\nThe type X crystal was subjected to the variable-temperature XRPD test.\nThe samples open dried at room temperature were characterized by TGA/DSC.\nMeanwhile, the type XIII crystal was coated to test XRPD, and new type XIV crystal could be observed."}, "[2]": {"assay": "LC-MS detection of chemical changes in the crystal", "assay_type": "physicochemical", "conditions": "obtained from type XVI crystal left at 60° C. for 5 days", "description": "The type XVI crystal was left at 60° C. for 5 days to obtain a type XVIII crystal, which was an anhydrous crystal."}, "HIV": {"system": "HIV", "conditions": "cited from earlier work; for EC50: read-out: HIV inhibitory activity EC50"}, "[3]": {"conditions": "within the tested dose range; read-out: cytotoxicity CC50; cited from earlier work"}, "[4]": {"conditions": "heated to 160° C. under nitrogen protection"}},
  "data": [
    {"smiles": "C#C[C@]1(CO)O[C@@H](n2cnc3c(N)nc(F)nc32)[C@@H](F)[C@@H]1O", "note": "[type XV crystal]", "values": [
      {"measurement": "crystal form after heating", "setting": "[1]; heated to 120° C.", "value": "crystal form was transformed"}
    ]},
    {"smiles": "C#C[C@]1(CO)O[C@@H](n2cnc3c(N)nc(F)nc32)[C@@H](F)[C@@H]1O", "note": "[type IX crystal]", "values": [
      {"measurement": "XRPD after heating", "setting": "[1]; heated to 95° C. under nitrogen, cooled to room temperature, exposed to air", "value": "degree of crystallinity was further decreased"},
      {"measurement": "XRPD after heating", "setting": "[1]; [4]", "value": "crystal form had been transformed"},
      {"measurement": "crystallinity after closed storage", "setting": "[1]; left closed at room temperature for about 3 days", "value": "reduced degree of crystallinity"}
    ]},
    {"smiles": "C#C[C@]1(CO)O[C@@H](n2cnc3c(N)nc(F)nc32)[C@@H](F)[C@@H]1O", "note": "[type V crystal]", "values": [
      {"measurement": "variable-temperature XRPD", "setting": "[1]; further heated to 154° C.", "value": "transformed into another crystal"},
      {"measurement": "variable-temperature XRPD", "setting": "[1]; heated to 90° C. and 130° C. under nitrogen", "value": "substantially transformed into an amorphous crystal"},
      {"measurement": "variable-temperature XRPD, nitrogen purge", "setting": "[1]; purged with nitrogen for about 20 min", "value": "significant decrease in degree of crystallinity"}
    ]},
    {"smiles": "C#C[C@]1(CO)O[C@@H](n2cnc3c(N)nc(F)nc32)[C@@H](F)[C@@H]1O", "note": "[type XVI crystal]", "values": [
      {"measurement": "crystal form by XRPD after heating", "setting": "[1]; heated to 55° C. in nitrogen atmosphere, held 2 to 24 h", "value": "type XVII crystal was also obtained"},
      {"measurement": "crystal form by XRPD after storage", "setting": "[1]; left at 60±5° C. for 5 days", "value": "transformed into the type XVIII crystals"},
      {"measurement": "crystal form after vacuum drying", "setting": "[1]; vacuum drying at room temperature for 24 h", "value": "transformed into a monohydrate crystal form—type XVII crystal"}
    ]},
    {"smiles": "C#C[C@]1(CO)O[C@@H](n2cnc3c(N)nc(F)nc32)[C@@H](F)[C@@H]1O", "note": "[type XVIII crystal]", "values": [
      {"measurement": "crystal form by XRPD after heating", "setting": "[1]; heated to 150° C.", "value": "crystal form did not change"},
      {"measurement": "crystal form by XRPD after storage", "setting": "[1]; left for 24 h at 25° C. and 92.5±5% humidity", "value": "crystal form did not change"},
      {"measurement": "chemical changes by LC-MS", "setting": "[2]", "value": "did not undergo chemical changes"}
    ]},
    {"smiles": "C#C[C@]1(CO)O[C@@H](n2cnc3c(N)nc(F)nc32)C[C@@H]1O", "note": "[Compound 1]", "values": [
      {"measurement": "EC50", "setting": "HIV", "value": 0.05, "unit": "nM"},
      {"measurement": "increase of HIV inhibitory activity by introduction of 2-fluorine", "setting": "HIV; versus 4′-ethynyl-2′-deoxyadenosine (EdA)", "value": 2200, "unit": "times"}
    ]},
    {"smiles": "C#C[C@]1(CO)O[C@@H](n2cnc3c(N)nc(F)nc32)[C@@H](F)[C@@H]1O", "note": "[type VI crystal]", "values": [
      {"measurement": "XRPD after heating", "setting": "[1]; [4]", "value": "crystal form was transformed"}
    ]},
    {"smiles": "C#C[C@]1(CO)O[C@@H](n2cnc3c(N)nc(F)nc32)[C@@H](F)[C@@H]1O", "note": "[type XIII crystal]", "values": [
      {"measurement": "crystal form in solvent environment", "setting": "[1]; left in a solvent environment at room temperature", "value": "transformed into the type XIV crystal"},
      {"measurement": "crystal form after open drying", "setting": "[1]; open dried at room temperature for about 2 h", "value": "crystal form was transformed"}
    ]},
    {"smiles": "C#C[C@]1(CO)O[C@@H](n2cnc3c(N)nc(F)nc32)[C@@H](F)[C@@H]1O", "note": "[type II crystal]", "values": [
      {"measurement": "crystal form after vacuum drying", "setting": "[1]; vacuum drying at room temperature for half an hour", "value": "transformed into a type III crystal"}
    ]},
    {"smiles": "C#C[C@]1(CO)O[C@@H](n2cnc3c(N)nc(F)nc32)[C@@H](F)[C@@H]1O", "note": "[compound (3), (2R,3R,4S,5R)-5-(6-amino-2-fluoro-9H-purin-9-yl)-2-ethynyl-4-fluoro-2-(hydroxymethyl)tetrahydrofuran-3-ol]", "values": [
      {"measurement": "CC50", "setting": "[3]", "value": "> 8000", "unit": "nM"},
      {"measurement": "EC50", "setting": "HIV", "value": 0.9, "unit": "nM"}
    ]},
    {"smiles": "C#C[C@]1(CO)O[C@@H](n2cnc3c(N)nc(F)nc32)[C@@H](F)[C@@H]1O", "note": "[type I crystal]", "values": [
      {"measurement": "XRPD after heating", "setting": "[1]; heated to 55° C. under nitrogen, cooled to room temperature, exposed to air", "value": "diffraction peak intensity of the sample was somewhat decreased"},
      {"measurement": "XRPD after heating", "setting": "[1]; heated to 100° C. under nitrogen protection", "value": "transformed into an amorphous crystal"}
    ]},
    {"smiles": "C#C[C@]1(CO)O[C@@H](n2cnc3c(N)nc(F)nc32)[C@@H](F)[C@@H]1O", "note": "[type XVII crystal]", "values": [
      {"measurement": "crystal form after drying", "setting": "[1]; dried at 90° C. for 1 to 24 h", "value": "obtain the type XVIII crystal"},
      {"measurement": "crystal form by XRPD after storage", "setting": "[1]; left for 5 days at 25° C. and 92.5±5% humidity", "value": "type XVI crystal was obtained"}
    ]},
    {"smiles": "C#C[C@]1(CO)O[C@@H](n2cnc3c(N)nc(F)nc32)[C@@H](F)[C@@H]1O", "note": "[type XIV crystal]", "values": [
      {"measurement": "crystal form after removal from solvent", "setting": "[1]; removed from the solvent environment", "value": "transformed into the type XIII crystal"}
    ]},
    {"smiles": "C#C[C@]1(CO)O[C@@H](n2cnc3c(N)ncnc32)C[C@@H]1O", "note": "[EdA, 4′-ethynyl-2′-deoxyadenosine]", "values": [
      {"measurement": "EC50", "setting": "HIV", "value": 11, "unit": "nM"}
    ]},
    {"smiles": "C#C[C@]1(CO)O[C@@H](n2cnc3c(N)nc(F)nc32)[C@@H](F)[C@@H]1O", "note": "[type VII crystal]", "values": [
      {"measurement": "XRPD after heating", "setting": "[1]; heated to 130° C. under nitrogen, cooled to room temperature, exposed to air", "value": "crystal form was transformed"}
    ]},
    {"smiles": "C#C[C@]1(CO)O[C@@H](n2cnc3c(N)nc(F)nc32)[C@@H](F)[C@@H]1O", "note": "[type IV crystal]", "values": [
      {"measurement": "stability by TGA", "setting": "[1]; 120° C.", "value": "unstable"},
      {"measurement": "XRPD of dried crystal after closed storage", "setting": "[1]; dried crystal left closed at room temperature for about 5 days", "value": "increased relative intensity of the diffraction peaks and increased number of diffraction peaks"},
      {"measurement": "XRPD after heating", "setting": "[1]; heated to 141° C. under nitrogen protection", "value": "transformed into a stable type III crystal"},
      {"measurement": "XRPD after vacuum drying", "setting": "[1]; vacuum dried at room temperature for 15 min", "value": "decreased relative intensity of the diffraction peaks"}
    ]},
    {"smiles": "C#C[C@]1(CO)O[C@@H](n2cnc3c(N)nc(F)nc32)[C@@H](F)[C@@H]1O", "note": "[type X crystal]", "values": [
      {"measurement": "variable-temperature XRPD", "setting": "[1]; further heated to 130° C.", "value": "diffraction peak intensity was significantly reduced"},
      {"measurement": "variable-temperature XRPD", "setting": "[1]; further heated to 145° C.", "value": "crystal form was transformed"},
      {"measurement": "variable-temperature XRPD", "setting": "[1]; heated to 120° C. while purging with nitrogen", "value": "position of the diffraction peak shifted"}
    ]},
    {"smiles": "C#C[C@]1(CO)O[C@@H](n2cnc3c(N)nc(F)nc32)[C@@H](F)[C@@H]1O", "note": "[type XII crystal]", "values": [
      {"measurement": "crystal form after vacuum drying", "setting": "[1]; vacuum drying at room temperature for 10 min", "value": "transformed into an amorphous crystal"}
    ]}
  ]
}
